# Laboratory results as given in patent US20230167073A1 (Teijin Pharma Limited, priority 2020, published 2023).
# Target: T1, Human TRPC6 (Homo sapiens, UniProt Q9Y210)
# T1 construct: expressed in transfected cells
# T1 sequence (Q9Y210 1-931): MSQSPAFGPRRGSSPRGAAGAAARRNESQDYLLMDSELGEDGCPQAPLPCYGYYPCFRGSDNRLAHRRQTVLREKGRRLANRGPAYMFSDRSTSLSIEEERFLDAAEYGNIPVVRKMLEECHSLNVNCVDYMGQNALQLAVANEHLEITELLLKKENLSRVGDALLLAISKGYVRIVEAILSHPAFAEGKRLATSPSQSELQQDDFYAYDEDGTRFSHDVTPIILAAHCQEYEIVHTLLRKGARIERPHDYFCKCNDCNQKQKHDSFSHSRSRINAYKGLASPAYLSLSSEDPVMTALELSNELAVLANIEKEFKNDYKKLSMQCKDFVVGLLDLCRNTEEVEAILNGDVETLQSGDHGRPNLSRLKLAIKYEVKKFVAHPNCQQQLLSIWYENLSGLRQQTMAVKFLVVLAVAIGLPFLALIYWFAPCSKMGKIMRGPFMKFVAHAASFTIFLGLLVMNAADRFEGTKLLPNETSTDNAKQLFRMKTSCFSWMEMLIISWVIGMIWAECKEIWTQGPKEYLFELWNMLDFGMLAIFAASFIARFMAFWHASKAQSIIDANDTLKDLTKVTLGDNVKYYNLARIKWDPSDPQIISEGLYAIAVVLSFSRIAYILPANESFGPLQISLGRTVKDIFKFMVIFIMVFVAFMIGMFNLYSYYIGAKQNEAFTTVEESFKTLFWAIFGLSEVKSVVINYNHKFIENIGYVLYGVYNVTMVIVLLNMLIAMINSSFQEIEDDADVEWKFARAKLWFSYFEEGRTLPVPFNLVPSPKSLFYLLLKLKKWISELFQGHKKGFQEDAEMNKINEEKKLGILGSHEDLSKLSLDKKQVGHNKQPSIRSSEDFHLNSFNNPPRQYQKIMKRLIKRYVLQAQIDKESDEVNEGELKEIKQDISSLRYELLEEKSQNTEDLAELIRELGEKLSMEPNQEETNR
# Assay: Evaluation of TRPC6 channel inhibitory activity (1), FLIPR Calcium 5 Assay Kit, OAG stimulation (Compound Nos. 1-1293)
# Type: cell-based
# Details: Human TRPC6 stably-expressing cells, OAG 30 μM, FLIPR Calcium 5 Assay Kit; read-out: Inhibitory activity (pIC50 class) (converted)
# How it was run: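 Calcium influx read by FLIPR fluorescence in cells stably expressing human TRPC6, dye-loaded 30 min. Compounds preincubated 20 min, then OAG stimulation at 30 μM final. Inhibition fitted by four-parameter logistic regression to give pIC50, reported as +/++/+++ categories.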
row,Structure (SMILES),IC50
1,"Cc1cc(Oc2cc(C#N)ccc2-c2ccc([C@H](O)CN)cn2)cc(OCC2CCCO2)n1 (stereo partly drawn) [compound 478, 4-[5-[(1S)-2-amino-1-hydroxyethyl]pyridin-2-yl]-3-[2-methyl-6-(oxolan-2-ylmethoxy)pyridin-4-yl]oxybenzonitrile]",10 to 1000 nM
2,"Cc1cc(Oc2cc(C#N)ccc2-c2ccc([C@H](O)CN)cn2)cc(OCCOC(C)C)n1 [compound 479, 4-[5-[(1S)-2-amino-1-hydroxyethyl]pyridin-2-yl]-3-[2-methyl-6-(2-propan-2-yloxyethoxy)pyridin-4-yl]oxybenzonitrile]",> 1000 nM
3,"Cn1nc(C2CC2)cc1Oc1cc(C#N)ccc1-c1cccc(CN)n1 [compound 480, 4-[6-(aminomethyl)pyridin-2-yl]-3-(5-cyclopropyl-2-methylpyrazol-3-yl)oxybenzonitrile]",> 1000 nM
4,"Cn1nc(C2CC2)cc1Oc1cc(C#N)ccc1-c1cccc(CCN)n1 [compound 481, 4-[6-(2-aminoethyl)pyridin-2-yl]-3-(5-cyclopropyl-2-methylpyrazol-3-yl)oxybenzonitrile]",> 1000 nM
5,"Cn1nc(C2CC2)cc1Oc1cc(C#N)ccc1-c1cc(CCN)ccn1 [compound 482, 4-[4-(2-aminoethyl)pyridin-2-yl]-3-(5-cyclopropyl-2-methylpyrazol-3-yl)oxybenzonitrile]",< 10 nM
6,"Cn1nc(C2CCCO2)cc1Oc1cc(C#N)ccc1-c1ncc(CCN)cn1 (centres unmarked) [compound 483, 4-[5-(2-aminoethyl)pyrimidin-2-yl]-3-[2-methyl-5-(oxolan-2-yl)pyrazol-3-yl]oxybenzonitrile]",< 10 nM
7,"Cn1nc(C2CCCO2)cc1Oc1cc(C#N)ccc1-c1ccc(CCN)cn1 (centres unmarked) [compound 484, 4-[5-(2-aminoethyl)pyridin-2-yl]-3-[2-methyl-5-(oxolan-2-yl)pyrazol-3-yl]oxybenzonitrile]",< 10 nM
8,"Cn1nc(N2CCOCC2)cc1Oc1cc(C#N)ccc1-c1ccc(CCN)cn1 [compound 485, 4-[5-(2-aminoethyl)pyridin-2-yl]-3-(2-methyl-5-morpholin-4-ylpyrazol-3-yl)oxybenzonitrile]",< 10 nM
9,"Cn1nc(C2CC2)cc1Oc1cc(C#N)ccc1-c1ccc(C(N)C(=O)N2CCCCC2)cn1 (centres unmarked) [compound 486, 4-[5-(1-amino-2-oxo-2-piperidin-1-ylethyl)pyridin-2-yl]-3-(5-cyclopropyl-2-methylpyrazol-3-yl)oxybenzonitrile]",> 1000 nM
10,"CCN(CC)C(=O)C(N)c1ccc(-c2ccc(C#N)cc2Oc2cc(C3CC3)nn2C)nc1 (centres unmarked) [compound 488, 2-amino-2-[6-[4-cyano-2-(5-cyclopropyl-2-methylpyrazol-3-yl)oxyphenyl]pyridin-3-yl]-N,N-diethylacetamide]",> 1000 nM
11,"CN(C)C(=O)C(N)c1ccc(-c2ccc(C#N)cc2Oc2cc(C3CC3)nn2C)nc1 (centres unmarked) [compound 489, 2-amino-2-[6-[4-cyano-2-(5-cyclopropyl-2-methylpyrazol-3-yl)oxyphenyl]pyridin-3-yl]-N,N-dimethylacetamide]",> 1000 nM
12,"CC(C)NC(=O)C(N)c1ccc(-c2ccc(C#N)cc2Oc2cc(C3CC3)nn2C)nc1 (centres unmarked) [compound 490, 2-amino-2-[6-[4-cyano-2-(5-cyclopropyl-2-methylpyrazol-3-yl)oxyphenyl]pyridin-3-yl]-N-propan-2-ylacetamide]",> 1000 nM
13,"CNC(=O)C(N)c1ccc(-c2ccc(C#N)cc2Oc2cc(C3CC3)nn2C)nc1 (centres unmarked) [compound 491, 2-amino-2-[6-[4-cyano-2-(5-cyclopropyl-2-methylpyrazol-3-yl)oxyphenyl]pyridin-3-yl]-N-methylacetamide]",10 to 1000 nM
14,"COCCOc1cc(Oc2cc(C#N)ccc2-c2ncc(CCN)cn2)cc(C)n1 [compound 492, 4-[5-(2-aminoethyl)pyrimidin-2-yl]-3-[2-(2-methoxyethoxy)-6-methylpyridin-4-yl]oxybenzonitrile]",10 to 1000 nM

# Now from value to compound:
row,IC50,Structure (SMILES)
1,< 10 nM,"Cn1nc(C2CC2)cc1Oc1cc(C#N)ccc1-c1ccc(CN)n2ccnc12 [compound 493, 4-[5-(aminomethyl)imidazo[1,2-a]pyridin-8-yl]-3-(5-cyclopropyl-2-methylpyrazol-3-yl)oxybenzonitrile]"
2,10 to 1000 nM,"Cc1cc(Oc2cc(C#N)ccc2-c2ccc(CN)n3ccnc23)cc(N2CCOCC2)n1 [compound 494, 4-[5-(aminomethyl)imidazo[1,2-a]pyridin-8-yl]-3-(2-methyl-6-morpholin-4-ylpyridin-4-yl)oxybenzonitrile]"
3,10 to 1000 nM,"Cn1nc(C2CCOC2)cc1Oc1cc(C#N)ccc1-c1ncc(CCN)cn1 (centres unmarked) [compound 495, 4-[5-(2-aminoethyl)pyrimidin-2-yl]-3-[2-methyl-5-(oxolan-3-yl)pyrazol-3-yl]oxybenzonitrile]"
4,< 10 nM,"Cn1nc(C2CCOC2)cc1Oc1cc(C#N)ccc1-c1ccc(CCN)cn1 (centres unmarked) [compound 496, 4-[5-(2-aminoethyl)pyridin-2-yl]-3-[2-methyl-5-(oxolan-3-yl)pyrazol-3-yl]oxybenzonitrile]"
5,> 1000 nM,"Cc1c(CN2CCN[C@@H](C)C2)cc(-c2ccc(C#N)cc2Oc2cc(C3CC3)nn2C)c2nccn12 [compound 497, 3-(5-cyclopropyl-2-methylpyrazol-3-yl)oxy-4-[5-methyl-6-[[(3S)-3-methylpiperazin-1-yl]methyl]imidazo[1,2-a]pyridin-8-yl]benzonitrile]"
6,< 10 nM,"Cc1cc(Oc2cc(C#N)ccc2-c2ccc([C@H](O)CN)cn2)cc(N2CCCC2)n1 [compound 498, 4-[5-[(1S)-2-amino-1-hydroxyethyl]pyridin-2-yl]-3-(2-methyl-6-pyrrolidin-1-ylpyridin-4-yl)oxybenzonitrile]"
7,< 10 nM,"Cc1cc(Oc2cc(C#N)ccc2-c2ncc([C@H](O)CN)cn2)cc(N2CCCC2)n1 [compound 499, 4-[5-[(1S)-2-amino-1-hydroxyethyl]pyrimidin-2-yl]-3-(2-methyl-6-pyrrolidin-1-ylpyridin-4-yl)oxybenzonitrile]"
8,< 10 nM,"Cc1cc(Oc2cc(C#N)ccc2-c2ccc([C@H](O)CN)cn2)cc(N2CCCCC2)n1 [compound 500, 4-[5-[(1S)-2-amino-1-hydroxyethyl]pyridin-2-yl]-3-(2-methyl-6-piperidin-1-ylpyridin-4-yl)oxybenzonitrile]"
9,< 10 nM,"Cc1cc(Oc2cc(C#N)ccc2-c2ncc([C@H](O)CN)cn2)cc(N2CCCCC2)n1 [compound 501, 4-[5-[(1S)-2-amino-1-hydroxyethyl]pyrimidin-2-yl]-3-(2-methyl-6-piperidin-1-ylpyridin-4-yl)oxybenzonitrile]"
10,< 10 nM,"Cc1cc(Oc2cc(C#N)ccc2-c2ccc([C@H](O)CN)cn2)cc(N2CC(F)C2)n1 [compound 502, 4-[5-[(1S)-2-amino-1-hydroxyethyl]pyridin-2-yl]-3-[2-(3-fluoroazetidin-1-yl)-6-methylpyridin-4-yl]oxybenzonitrile]"
11,< 10 nM,"Cc1cc(Oc2cc(C#N)ccc2-c2ncc(CCN)cn2)cc(N2CC(F)C2)n1 [compound 503, 4-[5-(2-aminoethyl)pyrimidin-2-yl]-3-[2-(3-fluoroazetidin-1-yl)-6-methylpyridin-4-yl]oxybenzonitrile]"
12,> 1000 nM,"Cn1nc(C2CC2)cc1Oc1cc(C#N)ccc1-c1ccc(C(N)C(N)=O)cn1 (centres unmarked) [compound 504, 2-amino-2-[6-[4-cyano-2-(5-cyclopropyl-2-methylpyrazol-3-yl)oxyphenyl]pyridin-3-yl]acetamide]"
13,< 10 nM,"Cc1cc(Oc2cc(C#N)ccc2-c2ccc([C@H](O)CN)cn2)cc(N2C[C@@H](C)O[C@@H](C)C2)n1 [compound 505, 4-[5-[(1S)-2-amino-1-hydroxyethyl]pyridin-2-yl]-3-[2-[(2S,6R)-2,6-dimethylmorpholin-4-yl]-6-methylpyridin-4-yl]oxybenzonitrile]"
14,< 10 nM,"Cc1cc(Oc2cc(C#N)ccc2-c2ncc([C@H](O)CN)cn2)cc(N2C[C@@H](C)O[C@@H](C)C2)n1 [compound 506, 4-[5-[(1S)-2-amino-1-hydroxyethyl]pyrimidin-2-yl]-3-[2-[(2S,6R)-2,6-dimethylmorpholin-4-yl]-6-methylpyridin-4-yl]oxybenzonitrile]"
15,< 10 nM,"Cc1nc(Oc2cc(C#N)ccc2-c2ccc([C@H](O)CN)cn2)cc(N2CCCC2)n1 [compound 507, 4-[5-[(1S)-2-amino-1-hydroxyethyl]pyridin-2-yl]-3-(2-methyl-6-pyrrolidin-1-ylpyrimidin-4-yl)oxybenzonitrile]"
